{"source": "patent US20090258786A1", "about": "“Controlled release agricultural products and processes for making the same” (priority 2000, published 2009)", "experiment": "Controlled release soil test (irrigated soil burial test)", "format": "physicochemical", "excerpt": "To measure the relative solubilities of the products in soil, an irrigated soil burial test was devised such that granules could be retrieved for measurement of their nitrogen content. The following is a description of the test.\nProcedure for Controlled Release Soil Test\n1. Screen the sample to obtain −6+7 Tyler mesh granules for the test.\n4. Place 300 g of potting soil with a 40% moisture content into the container and record the weight.\n7. Spread 5 grams of −6+7 Tyler mesh granules over the screen in a single layer and record the weight.\n13. Mist 4 g of water into each container and immediately place the lid on container and seal.\n14. After the fertilizer granules have been submerged in a humid soil environment for the allotted time (9 hours, 24 hours, and 3 days), the 150 g of soil is removed from the container.\n18. Place the fertilizer granules in a laboratory oven to dry at low temperature (50° C.) for 13 hours.\n20. Place the dry fertilizer sample into a 125 mL plastic sample bottle containing 20 g of de-ionized water.\n21. Allow the sample to dissolve for 3 hours.\n22. Place approximately 1 ml aliquot of the sample solution onto the sample stage of a refractometer(e.g., Abbe Refractometer).\n23. Record the refractive index and temperature of the solution.\n24. Calculate the percent urea retained from the original fertilizer sample.", "data": [{"smiles": "NC(N)=O", "note": "[plain urea, urea]", "values": [{"measurement": "time in which particles went into solution, soil test", "value": "≤ 9", "unit": "h"}]}]}
